# Test results published in ChEMBL document CHEMBL1201862, “PubChem BioAssay data set” (2004).
# Several values for one entry are separate records, joined by “and”; a condition that tells them apart may be missing. Identical values can stand only once. Counter-ions that a name gives are not always drawn. Activity calls are given as the source filed them.
# How the values were obtained:
# [1] = target: T1, Voltage-gated N-type calcium channel alpha-1B subunit/Amyloid beta A4 precursor protein-binding family A member 1 (Homo sapiens, UniProt Q00975+Q02410); format: protein assay
# T1 sequence (Q00975 whole entry): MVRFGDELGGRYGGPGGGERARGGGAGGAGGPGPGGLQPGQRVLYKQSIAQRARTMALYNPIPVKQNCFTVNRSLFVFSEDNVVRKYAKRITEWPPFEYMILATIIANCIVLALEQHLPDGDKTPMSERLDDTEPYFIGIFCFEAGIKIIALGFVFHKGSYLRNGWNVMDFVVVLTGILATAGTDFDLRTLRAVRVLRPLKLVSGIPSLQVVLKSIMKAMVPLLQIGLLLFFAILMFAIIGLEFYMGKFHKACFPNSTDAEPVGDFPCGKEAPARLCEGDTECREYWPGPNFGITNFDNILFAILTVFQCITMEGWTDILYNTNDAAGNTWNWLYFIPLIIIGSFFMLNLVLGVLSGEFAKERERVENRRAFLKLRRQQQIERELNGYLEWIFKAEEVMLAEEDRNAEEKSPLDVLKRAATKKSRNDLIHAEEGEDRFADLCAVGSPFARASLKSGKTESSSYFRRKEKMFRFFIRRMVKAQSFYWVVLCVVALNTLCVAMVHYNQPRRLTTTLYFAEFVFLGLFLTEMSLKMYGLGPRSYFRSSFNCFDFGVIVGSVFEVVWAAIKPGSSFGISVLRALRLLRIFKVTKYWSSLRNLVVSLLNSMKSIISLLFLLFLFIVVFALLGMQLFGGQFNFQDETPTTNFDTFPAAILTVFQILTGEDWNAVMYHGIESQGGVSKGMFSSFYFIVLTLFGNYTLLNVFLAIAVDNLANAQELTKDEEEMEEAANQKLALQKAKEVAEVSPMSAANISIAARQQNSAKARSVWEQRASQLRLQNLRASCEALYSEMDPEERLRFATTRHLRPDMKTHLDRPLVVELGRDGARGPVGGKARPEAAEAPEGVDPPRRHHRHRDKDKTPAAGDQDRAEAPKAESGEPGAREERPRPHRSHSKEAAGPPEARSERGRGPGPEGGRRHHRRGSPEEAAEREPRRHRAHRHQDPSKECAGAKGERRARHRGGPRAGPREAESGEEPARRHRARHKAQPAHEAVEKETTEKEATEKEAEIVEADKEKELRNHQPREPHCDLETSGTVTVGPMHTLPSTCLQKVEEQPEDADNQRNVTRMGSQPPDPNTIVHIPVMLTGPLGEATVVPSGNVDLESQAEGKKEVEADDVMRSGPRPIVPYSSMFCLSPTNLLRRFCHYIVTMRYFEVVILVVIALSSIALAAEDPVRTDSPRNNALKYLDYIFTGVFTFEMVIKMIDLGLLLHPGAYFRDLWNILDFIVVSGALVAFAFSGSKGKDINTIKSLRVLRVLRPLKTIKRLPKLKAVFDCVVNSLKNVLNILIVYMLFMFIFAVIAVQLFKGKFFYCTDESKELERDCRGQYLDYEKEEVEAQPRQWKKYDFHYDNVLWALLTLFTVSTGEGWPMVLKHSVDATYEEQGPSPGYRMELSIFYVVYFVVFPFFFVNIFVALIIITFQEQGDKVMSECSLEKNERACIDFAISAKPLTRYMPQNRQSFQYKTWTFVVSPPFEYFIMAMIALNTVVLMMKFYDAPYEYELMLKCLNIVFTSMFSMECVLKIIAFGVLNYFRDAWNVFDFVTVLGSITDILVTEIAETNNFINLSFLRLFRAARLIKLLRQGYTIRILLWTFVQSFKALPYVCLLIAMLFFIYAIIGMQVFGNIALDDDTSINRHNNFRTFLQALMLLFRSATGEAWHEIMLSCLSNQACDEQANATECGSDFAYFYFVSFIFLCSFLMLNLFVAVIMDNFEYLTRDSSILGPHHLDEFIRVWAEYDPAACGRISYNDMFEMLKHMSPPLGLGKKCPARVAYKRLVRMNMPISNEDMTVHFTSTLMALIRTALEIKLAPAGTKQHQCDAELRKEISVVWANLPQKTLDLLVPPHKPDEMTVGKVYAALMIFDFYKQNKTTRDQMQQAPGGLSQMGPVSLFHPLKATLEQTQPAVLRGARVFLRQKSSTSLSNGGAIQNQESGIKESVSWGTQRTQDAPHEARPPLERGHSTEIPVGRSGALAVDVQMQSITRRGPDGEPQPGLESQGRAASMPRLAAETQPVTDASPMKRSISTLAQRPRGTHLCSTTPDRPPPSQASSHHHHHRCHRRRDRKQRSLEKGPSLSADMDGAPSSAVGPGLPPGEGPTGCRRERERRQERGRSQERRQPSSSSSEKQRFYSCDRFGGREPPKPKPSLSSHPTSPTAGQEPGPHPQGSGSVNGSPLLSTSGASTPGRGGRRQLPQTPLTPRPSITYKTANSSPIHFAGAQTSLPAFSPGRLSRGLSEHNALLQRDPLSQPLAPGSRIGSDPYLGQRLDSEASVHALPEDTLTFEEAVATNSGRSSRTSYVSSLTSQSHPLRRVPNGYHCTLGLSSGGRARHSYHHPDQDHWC
# T1 sequence (Q02410 whole entry): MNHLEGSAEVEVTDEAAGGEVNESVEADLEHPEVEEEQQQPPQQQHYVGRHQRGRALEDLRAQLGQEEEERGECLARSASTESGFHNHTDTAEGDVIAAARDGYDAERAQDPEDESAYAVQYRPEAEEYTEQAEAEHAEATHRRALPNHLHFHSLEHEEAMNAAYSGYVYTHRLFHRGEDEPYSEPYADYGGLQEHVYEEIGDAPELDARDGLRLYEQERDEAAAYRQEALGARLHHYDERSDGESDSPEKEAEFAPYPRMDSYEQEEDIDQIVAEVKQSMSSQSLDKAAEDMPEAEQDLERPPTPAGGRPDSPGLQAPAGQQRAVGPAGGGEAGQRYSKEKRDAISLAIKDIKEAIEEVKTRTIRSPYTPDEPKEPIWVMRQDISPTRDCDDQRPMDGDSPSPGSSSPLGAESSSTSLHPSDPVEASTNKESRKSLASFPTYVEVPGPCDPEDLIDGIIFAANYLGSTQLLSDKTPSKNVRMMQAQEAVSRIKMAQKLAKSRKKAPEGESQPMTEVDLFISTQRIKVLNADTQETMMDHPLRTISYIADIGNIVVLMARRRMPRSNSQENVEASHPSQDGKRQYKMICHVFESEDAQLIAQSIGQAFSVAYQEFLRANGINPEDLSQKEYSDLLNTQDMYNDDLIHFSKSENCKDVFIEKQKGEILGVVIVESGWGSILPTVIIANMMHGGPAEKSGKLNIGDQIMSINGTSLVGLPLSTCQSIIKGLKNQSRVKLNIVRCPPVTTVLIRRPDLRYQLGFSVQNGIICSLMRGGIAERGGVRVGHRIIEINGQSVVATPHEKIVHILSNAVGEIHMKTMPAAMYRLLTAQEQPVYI
# [2] = target: Glutathione-S-transferase (Schistosoma japonicum, UniProt Q26513); assay: biotin-GST/anti-GST TR-FRET signal inhibitors, dose response, artefact control for Vif-APOBEC3G degradation inhibitor project, biochemical (AID 1117362); format: functional
# [3] = target: T2, Tyrosine-protein phosphatase non-receptor type 7 (Homo sapiens, UniProt P35236); assay: redox-dependent HePTP inhibition, mechanism study, biochemical, fluorescence (AID 2068); format: functional
# T2 sequence (P35236 whole entry): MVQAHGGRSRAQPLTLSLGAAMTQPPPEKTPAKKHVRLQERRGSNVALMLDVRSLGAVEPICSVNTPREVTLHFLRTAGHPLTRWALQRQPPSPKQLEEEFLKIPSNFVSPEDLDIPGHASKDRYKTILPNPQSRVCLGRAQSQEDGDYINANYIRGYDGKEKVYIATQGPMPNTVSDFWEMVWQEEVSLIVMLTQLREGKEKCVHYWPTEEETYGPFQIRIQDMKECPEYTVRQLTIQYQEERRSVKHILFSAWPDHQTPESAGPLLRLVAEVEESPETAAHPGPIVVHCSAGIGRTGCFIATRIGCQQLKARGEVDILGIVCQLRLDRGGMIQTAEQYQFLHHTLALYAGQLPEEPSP
# [4] = target: Eukaryotic translation initiation factor 4E (Mus musculus, UniProt P63073); assay: eIF4E–eIF4G protein interaction inhibitors, dose response, biochemical, TR-FRET (AID 855); format: functional;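 note: potency for disrupting eIF4E binding to eIF4GI seen as loss of FRET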
# [5] = target: T1, Voltage-gated N-type calcium channel alpha-1B subunit/Amyloid beta A4 precursor protein-binding family A member 1; format: protein assay; remark: listed apart in the source
# [6] = target: T3, Short transient receptor potential channel 4 (Mus musculus, UniProt Q9QUQ5); assay: TRPC4 positive allosteric modulators, dose response, cell-based, HEK293 TRPC4/mu-opioid, Fluo-4 calcium, EC20 DAMGO (AID 434941); format: functional
# T3 sequence (Q9QUQ5 whole entry): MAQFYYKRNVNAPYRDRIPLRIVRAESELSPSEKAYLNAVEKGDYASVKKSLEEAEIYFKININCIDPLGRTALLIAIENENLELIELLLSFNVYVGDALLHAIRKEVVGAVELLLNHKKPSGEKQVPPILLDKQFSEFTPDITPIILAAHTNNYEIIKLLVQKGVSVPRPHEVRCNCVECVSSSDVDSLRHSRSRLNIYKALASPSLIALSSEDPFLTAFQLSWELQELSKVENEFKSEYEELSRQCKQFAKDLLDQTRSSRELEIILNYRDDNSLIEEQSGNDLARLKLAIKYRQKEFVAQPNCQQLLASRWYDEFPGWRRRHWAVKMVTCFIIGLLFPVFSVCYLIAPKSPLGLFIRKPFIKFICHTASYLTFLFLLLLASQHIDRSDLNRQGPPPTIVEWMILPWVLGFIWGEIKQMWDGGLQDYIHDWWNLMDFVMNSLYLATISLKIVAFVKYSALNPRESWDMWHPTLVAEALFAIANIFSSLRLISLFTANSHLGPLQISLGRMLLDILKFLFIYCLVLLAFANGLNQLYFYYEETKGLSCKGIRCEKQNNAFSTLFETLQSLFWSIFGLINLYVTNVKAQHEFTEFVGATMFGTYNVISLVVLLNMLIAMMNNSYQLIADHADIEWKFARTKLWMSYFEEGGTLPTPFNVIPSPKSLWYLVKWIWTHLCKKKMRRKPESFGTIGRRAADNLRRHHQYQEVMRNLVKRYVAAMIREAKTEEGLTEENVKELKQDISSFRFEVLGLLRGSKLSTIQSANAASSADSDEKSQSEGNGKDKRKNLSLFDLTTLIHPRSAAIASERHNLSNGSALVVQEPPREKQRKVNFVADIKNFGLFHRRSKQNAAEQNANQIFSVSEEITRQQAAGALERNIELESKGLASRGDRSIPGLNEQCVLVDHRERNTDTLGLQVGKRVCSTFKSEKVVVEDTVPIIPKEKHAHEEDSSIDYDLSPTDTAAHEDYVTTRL
# [7] = Luminescence Cell-Based/Microorganism Confirmation at Dose of Inhibitors of Trypanosoma cruzi Infection. [Related pubchem assays: 1885, 1968 ]; format: functional
# [8] = Luminescence Cell-Based Secondary HTS screen to identify cytotoxic compounds of NIH3T3 cells. [Related pubchem assays: 1885, 1968 ]; format: functional
# Trypanosoma cruzi = assay: growth inhibition of intracellular Trypanosoma cruzi, dose response, cell-based, plate reader, dry powder, set 3 (AID 493197); format: functional
# [9] = cytotoxicity in NIH/3T3 mouse fibroblasts, dose response, cytotoxicity control, cell-based, mouse embryonic fibroblasts, dry powder, set 2 (AID 493247); format: functional; conditions: Fibroblast
# [10] = target: C-C chemokine receptor type 6 (Homo sapiens, UniProt P51684); assay: CCR6 receptor antagonists, dose response, cell-based, luminescent beta-arrestin readout (AID 504728); format: functional
# Beta-galactosidase = Beta-galactosidase (Escherichia coli, UniProt Q8VNN2); assay: beta-galactosidase enzyme inhibitors and activators, dose response, artefact control for CCR6 antagonist project, biochemical, E. coli enzyme, set 3 (AID 504712); format: functional
# [11] = target: T4, Mannose-6-phosphate isomerase (Homo sapiens, UniProt P34949); assay: PMI enzyme inhibitors, confirmation, biochemical, fluorescence intensity (AID 1535)
# T4 sequence (P34949 whole entry): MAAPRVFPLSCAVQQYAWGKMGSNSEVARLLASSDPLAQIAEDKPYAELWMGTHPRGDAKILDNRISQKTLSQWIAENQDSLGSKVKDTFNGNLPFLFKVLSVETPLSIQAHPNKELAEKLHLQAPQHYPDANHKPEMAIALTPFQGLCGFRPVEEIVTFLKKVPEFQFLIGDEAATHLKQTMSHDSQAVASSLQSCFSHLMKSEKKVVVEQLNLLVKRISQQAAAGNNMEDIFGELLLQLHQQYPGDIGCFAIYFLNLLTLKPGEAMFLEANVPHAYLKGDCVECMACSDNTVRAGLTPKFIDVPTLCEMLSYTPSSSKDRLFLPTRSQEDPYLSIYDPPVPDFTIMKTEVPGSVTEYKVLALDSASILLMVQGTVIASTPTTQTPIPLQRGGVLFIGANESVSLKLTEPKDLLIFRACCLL
# Phosphomannomutase 2 = target: T5, Phosphomannomutase 2 (Homo sapiens, UniProt O15305); assay: Counter screen SAR assay for PMM2 inhibitors via a fluorescence intensity assay. [Related pubchem assays (depositor defined):AID1545, AID1574]
# T5 sequence (O15305 whole entry): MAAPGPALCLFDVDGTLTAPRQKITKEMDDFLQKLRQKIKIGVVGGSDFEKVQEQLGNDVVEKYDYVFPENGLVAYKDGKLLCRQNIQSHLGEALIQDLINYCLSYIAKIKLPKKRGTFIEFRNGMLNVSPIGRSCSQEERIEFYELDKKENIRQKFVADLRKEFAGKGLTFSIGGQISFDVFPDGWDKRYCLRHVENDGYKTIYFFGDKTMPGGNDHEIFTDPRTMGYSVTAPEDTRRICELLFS
# Hexokinase = Hexokinase (Trypanosoma brucei, UniProt Q38C41); assay: Confirmation assay for inhibitors of Trypanosoma brucei hexokinase 1-Analogue-first series. [Related pubchem assays (depositor defined):AID1430, AID1632, AID2516, AID2560, AID2579, AID2600, AID449725, AID492951]; format: functional
# [12] = target: T6, Kappa-type opioid receptor (Homo sapiens, UniProt P41145); assay: SAR analysis of Antagonists of the Kappa Opioid Receptor (KOR) using an Image-Based Assay - Set 3. [Related pubchem assays (depositor defined):AID1777, AID1785]; format: functional
# T6 sequence (P41145 whole entry): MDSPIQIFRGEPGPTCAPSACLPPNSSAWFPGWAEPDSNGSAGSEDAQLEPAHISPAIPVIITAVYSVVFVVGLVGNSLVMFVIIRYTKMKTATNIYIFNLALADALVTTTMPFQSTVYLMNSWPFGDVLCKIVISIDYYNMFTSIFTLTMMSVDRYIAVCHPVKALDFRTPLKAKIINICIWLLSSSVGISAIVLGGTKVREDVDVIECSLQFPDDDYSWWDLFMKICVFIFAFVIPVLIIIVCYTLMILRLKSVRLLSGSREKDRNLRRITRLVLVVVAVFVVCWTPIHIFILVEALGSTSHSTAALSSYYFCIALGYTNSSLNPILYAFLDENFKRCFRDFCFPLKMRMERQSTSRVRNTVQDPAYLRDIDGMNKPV
# [13] = target: T6, Kappa-type opioid receptor; assay: SAR analysis of small molecule antagonists of the kappa opioid receptor via a luminescent beta-arrestin assay - Set 3. [Related pubchem assays (depositor defined):AID1777, AID1778, AID1785, AID1786, AID1966, AID2133, AID2136, AID2285, AID2495]; format: functional
# Mu-type opioid receptor = Mu-type opioid receptor (Homo sapiens, UniProt P35372); assay: SAR Analysis of Antagonists of the MOR Receptor using an Image-Based Assay - Set 3. [Related pubchem assays (depositor defined):AID1777, AID1785, AID1786, AID1966, AID2133, AID2136, AID2284, AID2285, AID2420]; format: functional
# [14] = target: Delta-type opioid receptor (Homo sapiens, UniProt P41143); assay: SAR Analysis of Antagonists of the DOR Receptor using an Image-Based Assay - Set 3. [Related pubchem assays (depositor defined):AID1777, AID1785]; format: functional;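 note: U2OS cells expressing DOR1 and beta-arrestin GFP stimulated with 100 nM SNC80; imaging of GFP-tagged beta-arrestin moving into spots after receptor activation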
# [15] = target: T7, Intestinal-type alkaline phosphatase (Homo sapiens, UniProt P09923); assay: human intestinal alkaline phosphatase activators, dose response, biochemical, luminescence, uHTS hits (AID 463120); format: functional
# T7 sequence (P09923 whole entry): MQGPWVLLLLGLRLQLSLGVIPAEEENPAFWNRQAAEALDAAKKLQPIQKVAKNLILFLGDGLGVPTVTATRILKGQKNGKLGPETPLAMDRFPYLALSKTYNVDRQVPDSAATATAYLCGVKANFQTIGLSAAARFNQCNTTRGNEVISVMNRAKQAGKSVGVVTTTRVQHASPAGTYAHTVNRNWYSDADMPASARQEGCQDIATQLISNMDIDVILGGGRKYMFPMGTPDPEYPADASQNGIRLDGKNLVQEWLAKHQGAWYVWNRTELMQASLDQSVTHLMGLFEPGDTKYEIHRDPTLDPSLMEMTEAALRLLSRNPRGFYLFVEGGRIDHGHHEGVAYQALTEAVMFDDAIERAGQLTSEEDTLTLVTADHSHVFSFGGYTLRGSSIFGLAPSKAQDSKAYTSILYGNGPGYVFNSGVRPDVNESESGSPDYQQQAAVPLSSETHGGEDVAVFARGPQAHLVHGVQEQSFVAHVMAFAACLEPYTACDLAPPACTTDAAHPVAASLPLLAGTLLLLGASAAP
# SUMO-activating enzyme [16] = target: T8, SUMO-activating enzyme (Homo sapiens, UniProt Q9UBT2); assay: SUMOylation inhibitor hit validation, confirmation, SUMOylation inhibitor project, biochemical, AlphaScreen (AID 2018); format: functional
# T8 sequence (Q9UBE0 whole entry): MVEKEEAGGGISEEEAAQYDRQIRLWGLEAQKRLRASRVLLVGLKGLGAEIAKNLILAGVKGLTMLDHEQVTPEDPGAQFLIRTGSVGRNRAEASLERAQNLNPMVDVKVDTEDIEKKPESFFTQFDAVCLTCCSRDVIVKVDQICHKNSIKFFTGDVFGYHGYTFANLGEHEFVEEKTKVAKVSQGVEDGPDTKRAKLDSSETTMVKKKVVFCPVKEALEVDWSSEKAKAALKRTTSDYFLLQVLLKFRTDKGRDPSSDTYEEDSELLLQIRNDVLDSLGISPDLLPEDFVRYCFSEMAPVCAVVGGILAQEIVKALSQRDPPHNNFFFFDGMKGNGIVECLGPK
# T8 sequence (Q9UBT2 whole entry): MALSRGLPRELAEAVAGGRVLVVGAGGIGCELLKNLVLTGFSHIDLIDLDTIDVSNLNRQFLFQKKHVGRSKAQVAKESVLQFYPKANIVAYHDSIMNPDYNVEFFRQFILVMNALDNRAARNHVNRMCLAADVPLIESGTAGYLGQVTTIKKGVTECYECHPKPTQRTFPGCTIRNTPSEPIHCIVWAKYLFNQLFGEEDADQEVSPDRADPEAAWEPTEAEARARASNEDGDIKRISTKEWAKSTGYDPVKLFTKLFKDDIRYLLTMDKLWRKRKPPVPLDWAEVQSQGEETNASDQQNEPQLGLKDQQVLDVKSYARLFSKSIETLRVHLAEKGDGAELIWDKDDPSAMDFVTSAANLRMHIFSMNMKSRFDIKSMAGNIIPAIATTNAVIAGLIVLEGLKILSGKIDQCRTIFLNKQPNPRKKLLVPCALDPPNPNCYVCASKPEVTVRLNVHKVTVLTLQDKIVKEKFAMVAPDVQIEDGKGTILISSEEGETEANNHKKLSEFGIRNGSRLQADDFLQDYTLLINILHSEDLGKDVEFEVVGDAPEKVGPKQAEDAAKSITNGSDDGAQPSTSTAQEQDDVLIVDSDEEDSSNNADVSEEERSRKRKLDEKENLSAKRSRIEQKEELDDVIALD
# [17] = C. albicans growth with fluconazole, confirmation, fluorescence, retest (AID 2467); format: functional, cell-based
# [18] = target: Intestinal-type alkaline phosphatase (Mus musculus, UniProt P24822); assay: PubChem AID 488875; format: functional
# [19] = target: T7, Intestinal-type alkaline phosphatase; assay: human IAP activators, dose response, biochemical, luminescent, uHTS hits, set 2 (AID 488817); format: functional;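 note: potency of activators that raise enzyme activity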
# [20] = NIH-3T3 fibroblast cytotoxicity, dose response, cytotoxicity control, cell-based, fluorescence, Alamar Blue, secondary assay (AID 2327); format: functional;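 note: NIH-3T3 mouse fibroblasts cultured with fluconazole at 8 µg/mL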
# SUMO-activating enzyme [21] = target: T8, SUMO-activating enzyme; assay: inhibitors of in vitro SUMOylation cascade, primary screen, biochemical, HTRF, uHTS (AID 2006); format: protein-complex assay
# [22] = target: T9, Alkaline phosphatase, tissue-nonspecific isozyme (Homo sapiens, UniProt P05186); assay: TNAP enzyme activators, dose response, selectivity assay for human IAP activator project, biochemical, TNAP isozyme, human IAP uHTS hits (AID 488886); format: functional;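 note: potency of compounds raising TNAP activity as a selectivity check on IAP activators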
# T9 sequence (P05186 whole entry): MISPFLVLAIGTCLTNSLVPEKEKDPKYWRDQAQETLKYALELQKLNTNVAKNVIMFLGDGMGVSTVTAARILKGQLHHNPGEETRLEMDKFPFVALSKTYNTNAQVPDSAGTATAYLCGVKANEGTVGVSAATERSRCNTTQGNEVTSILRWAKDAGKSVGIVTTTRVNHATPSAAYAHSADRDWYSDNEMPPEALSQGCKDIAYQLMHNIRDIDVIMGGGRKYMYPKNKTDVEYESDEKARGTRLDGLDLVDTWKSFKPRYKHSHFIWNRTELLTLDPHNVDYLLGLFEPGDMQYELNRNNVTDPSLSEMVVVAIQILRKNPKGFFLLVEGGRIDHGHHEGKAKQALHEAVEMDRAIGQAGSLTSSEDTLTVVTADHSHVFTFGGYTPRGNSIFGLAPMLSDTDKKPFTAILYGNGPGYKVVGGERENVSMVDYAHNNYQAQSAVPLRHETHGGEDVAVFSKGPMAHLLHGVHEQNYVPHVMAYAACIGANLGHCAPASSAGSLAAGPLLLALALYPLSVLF
# [23] = target: G-protein coupled receptor 55 (Homo sapiens, UniProt Q9Y2T6); assay: GPR55 antagonists blocking LPI-driven arrestin recruitment, primary screen, imaging, U2OS, beta-arrestin-GFP, LPI agonist (AID 2013); format: functional;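 note: antagonist potency measured as reduced agonist-driven arrestin aggregation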
structure (smiles),measurement,setting,value
O=C(NCCCO)Nc1ccc2nc(-c3ccco3)c(-c3ccco3)nc2c1,IC50,[1],20 µM (active)
same,IC50,[2],> 100 µM (active)
same,IC50,[3],841 nM (active) and 537 nM (active)
same,IC50,[4],9.25 µM (active)
same,IC50,[5],0.507 µM (active)
CCOc1ccc(-n2c(SCC(=O)O)nc3sc4c(c3c2=O)CCCC4)cc1,EC50,[6],5.96 µM (active)
CN(Cc1ccccc1)C(=O)C1CCCN(Cc2cccc(Cl)c2)C1 (stereo not drawn),EC50,[7],0.231 µM (active)
same,EC50,[8],> 195 µM (not active)
same,AC50,Trypanosoma cruzi,0.57 µM (active)
same,AC50,[9],70.3 µM (active)
O=C(Nc1nnc(C2CC2)s1)c1cc([N+](=O)[O-])ccc1N1CCCCC1,IC50,[10],> 66.6 µM (inactive)
same,IC50,Beta-galactosidase,> 66.6 µM (inactive)
COc1cccc(-n2sc3ccccc3c2=O)c1,IC50,[11],4.19 µM (active)
same,IC50,Phosphomannomutase 2,14.3 µM (active)
same,IC50,Hexokinase,2.52 µM (active)
CCN(CCNC(=O)c1ccc(CNS(=O)(=O)c2ccc(C)cc2)cc1)Cc1ccccc1,IC50,[12],2.93 µM (active)
same,IC50,[13],5.57 µM (active)
same,IC50,Mu-type opioid receptor,10.3 µM (inactive)
same,IC50,[14],> 32 µM (inactive)
COc1cccc(/C=N\NC(=O)C2=NNC(=O)C2C)c1O (stereo not drawn),EC50,[15],6.53 µM (active)
same,IC50,SUMO-activating enzyme [16],5.18 µM (active)
same,EC50,[17],> 38 µM (not active)
same,EC50,[18],> 100 µM (inactive)
same,EC50,[19],9.07 µM (active)
same,EC50,[20],> 160 µM (inconclusive)
same,IC50,SUMO-activating enzyme [21],18.3 µM (active)
same,EC50,[22],8.88 µM (active)
CC(NCCC(c1ccccc1)c1ccccc1)c1ccccc1 (stereo not drawn) [FENDILINE HYDROCHLORIDE],IC50,[23],3.1 µM (active)
